# According to article PMC11219860, “A chemogenetic approach for dopamine imaging with tunable sensitivity” (Nature Communications, 2024):
# Where two headings read alike, the source gives them in different places.
# How the values were obtained:
# [1] = system: NAc DRD1-MSNs; assay: Footshock-induced NAc DRD1-MSN activity (jGCaMP8m photometry); details: DETQ 10 mg/kg; SCH-23390 0.1 mg/kg i.p.
# Protocol: Cue-reward paradigm (NAc recordings) was carried out in an operant chamber within a sound-attenuating box with low red light illumination (30 Lux). […] During the next session mice were trained to initiate reward delivery via licking. […] During expert sessions CS-US pairings were repeated 20 times per session ( ~ 30 min for each session). Mice underwent a total of 12 sessions for cue-reward learning. 10 minutes before each session drugs were injected i.p. […] The rewards were delivered from 10 to 40 min post vehicle or DETQ injection. Chambers and lick ports were sanitized with ethanol between mice. For all sessions, lick data and photometry recordings were simultaneously obtained; licking behaviour was detected by a capacity-based sensor. Latency to reward-anticipatory licking was calculated as the time between the CS and lick onset. The lick proportion was calculated as the percent time mice spent licking during CS presentation divided by the percent time mice spent licking during the rest of the session (without CS). […] Fiber photometry recordings were analyzed using custom-written Matlab scripts. […] Change in fluorescence, ΔF/F0 (%), was defined as (F-F0)/F0 x 100, where F represents the fluorescent signal (465-nm) at each time point. F0 was calculated by applying a least-squares linear fit (polyfit) to the 405-nm signal to align with the 465-nm signal. […]
# [2] = design: method as in Bruns et al., 2018; details: ref Bruns et al., 2018, cited from earlier work
# [3] = system: DRD1-MSNs; assay: Whole-cell electrophysiology of DRD1-MSNs in dorsal striatum brain slices; format: cell-based, mouse
# Protocol: For experiments involving SKF38393 application, to identify DRD1 receptor (DRD1)-positive neurons in the dorsal striatum, DRD1:cre mice injected with AAV5-hSyn-dlox-ChrimsonR-tdTomato were used. 3–4 weeks after viral injection, mice were anesthetized with 5% isoflurane and euthanized by decapitation. […] Slices were kept at 34 °C for 10–20 minutes and then at room temperature until recordings. In the recording chamber, slices were superfused with ACSF at 30–32 °C. Patch pipettes (3–7 MΩ) were pulled from borosilicate glass pipettes (GC150T-10, Harvard Apparatus). The internal solution contained (in mM): potassium gluconate 130, MgCl2 4, MgATP 3.4, Na3GTP 0.1, creatine phosphate 10, HEPES 5, and EGTA 1.1. The membrane potential was measured using EPC 10 USB Patch Clamp Amplifiers (HEKA). The access resistance was monitored by a hyperpolarizing step of −10 mV. The identification of DRD1-positive neurons was performed by the presence of red fluorescence protein and photo-evoked current or potential (@2 Hz, 10 ms duration, 2 pulses or 500 ms continuous pulse. light source: Colibri 7, Zeiss; 630 nm wavelength, 1 mW). To assess the excitability of neurons, positive currents were injected (0–500 pA) and the number of action potentials was counted at each current step. To measure input resistance, negative currents were injected (−200 to 0 pA, every 50 pA, 500 ms), as previously described. The resting membrane potential was measured at 0 pA current input.
# Action potentials were evoked by current injection (50–500 pA, 500 ms) in current-clamped neurons. Neurons were recorded from in the presence of picrotoxin (100 µM), CGP55485 (0.3 µM), DNQX (10 µM), and MK801 (10 µM) to block GABAA, GABAB, AMPA and NMDA receptors, respectively. DA (10 µM) was applied to brain slices in the presence of cocaine (5 µM) to prevent reuptake.
# [4] = biological target: T1, msADRA1a (Mus musculus, UniProt P97718); assay: NanoBit complementation assay of mini-Gq recruitment; format: cell-based
# T1 construct: expressed in transfected cells; host or cells: HEK293T
# Protocol: To measure the effect of DETQ on mini-G protein recruitment by different GPCRs we used a Nanoluciferase (NanoBit)-based complementation assay[26],[27]. For this HEK293T cells were seeded in six-well plates (Techno Plastic Products) at a density of 300,000 cells per well and co-transfected with plasmids encoding either hmDRD1, msDRD1, msDRD2, msDRD5, msADRA1a, msβ2AR or ms5HT6 carrying a C-terminally fused SmBiT, in combination with the corresponding mini-G protein probe[78] (mini-Gs: for DRD1, DRD5, β2AR, 5HT6R; mini-Gq: for ADRA1a; or mini-Gi: for DRD2), which were N-terminally fused to LgBiT, in a 1:1 DNA ratio using Effectene transfection reagent (Qiagen). […] The plate was incubated at 37 °C for 30 min, before the luminescence signal was measured at 37 °C using a Tecan Spark plate reader before and after the manual addition of 25 µl of either ligand solution (final concentrations ranging from 1 nM to 100 µM), pure Fluorobrite-DMEM or 25 µl of a DETQ solution (1 µM final concentration).
# For in vitro luminescence assays, ligand traces were divided by buffer traces, the area under the curve for each trace was calculated using GraphPad Prism, values were normalized and fitted as dose response curve. […] The statistical significance was determined using Welch’s ANOVA followed by Dunnett’s multiple comparison test (comparison of ligand or vehicle to ligand). […]
# T1 sequence (P97718 whole entry): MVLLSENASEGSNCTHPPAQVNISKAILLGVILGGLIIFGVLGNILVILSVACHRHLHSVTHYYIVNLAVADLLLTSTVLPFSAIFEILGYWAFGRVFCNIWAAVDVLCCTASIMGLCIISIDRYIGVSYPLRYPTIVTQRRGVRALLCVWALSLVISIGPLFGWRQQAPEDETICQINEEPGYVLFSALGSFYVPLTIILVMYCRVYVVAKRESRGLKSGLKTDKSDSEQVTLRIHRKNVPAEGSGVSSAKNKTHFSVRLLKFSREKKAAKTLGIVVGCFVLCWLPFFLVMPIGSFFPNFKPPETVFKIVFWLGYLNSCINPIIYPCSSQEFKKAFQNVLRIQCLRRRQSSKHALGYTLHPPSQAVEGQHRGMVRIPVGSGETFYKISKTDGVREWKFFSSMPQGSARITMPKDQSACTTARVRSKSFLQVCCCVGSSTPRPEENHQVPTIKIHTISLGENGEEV
smiles,measurement,setting,value
"C[C@H]1c2cccc(C(C)(C)O)c2C[C@H](CO)N1C(=O)Cc1c(Cl)cccc1Cl [DETQ, 2-(2,6-dichlorophenyl)-1-((1S,3R)-3-(hydroxymethyl)-5-(2-hydroxypropan-2-yl)-1-methyl-3,4-dihydroisoquinolin-2(1H)-yl)ethan-1-one]",footshock-induced activity in NAc DRD1-MSNs,[1],remained unaffected
same,brain levels of the histamine metabolites,"[2]; hD1 mice, same dose",significant elevations
same,brain levels of the histamine metabolites,"[2]; wild type mice, 10 mg/kg PO",did not change
same,number of action potentials: DA with versus without DETQ,"[3]; DA 10 µM, DETQ 200 nM",no significant difference
same,resting membrane potential or excitability of DRD1-MSNs,[3]; DETQ 200 nM superfusion,No noticeable changes
same,agonist mode: direct agonist effect,[4]; DETQ 1 µM alone,no direct agonist effect
same,allosteric modulator mode: effect on agonist dose-response,"[4]; DETQ 1 µM, NE",No allosteric effect
